{
  "source": "patent US20100003223A1",
  "about": "“METHOD FOR THE PRODUCTION OF MULTICOMPONENT STEM CELLS, RELATIVE KITS AND USES IN THE MEDICAL FIELD” (Metapontium Agrobios S.R.L., priority 2006, published 2010)",
  "key": {"[1]": {"tested_on": "late-phase adipogenic markers (leptin, GLUT-4)", "assay": "Semiquantitative PCR / RT-PCR of adipogenic marker expression", "type": "cell-based, human", "conditions": "preliminary results; FIG. 1: Ob gene (leptin), 175 μM", "procedure": "In order to amplify the cDNA obtained from the 5-Aza cultures treated, the following were used: • Eppendorf thermocycler Amplifier; • Specific primers designed with the help of the PrimerQuest program (http://biotools.idt.com) and Nucleotide database consultation (http://www.ncbi.nlm.nih.gov) and BLAST (Basic Local Alignment Search Tool) (http://www.ncbi.nlm.nih.gov/BLAST/).\nThe primers were purchased from New England Biolabs.\nAmplification conditions: 95° C. for 10 minutes (initial denaturation), 30 cycles of 95° C. for 30 seconds (denaturation), 52° C. for 45 seconds (annealing), 72° C. for 45 seconds (extension), 72° C. for 10 minutes (final extension). The reaction mixture was prepared with 1 μl of cDNA, 1 μl of dNtPs Mix (10 mM), 1.25 μl of MgCl2 solution (25 mM), 1.25 μl of buffer 10×, 0.2 μl of Ampli Taq Gold (5U μl) (Applied Biosystem), 1 μl of specific sense primer and 1 μl of antisense primer (10 μM), […] of H2O RNase free in a final volume of 12.5 μl.\nThe expression of the late-phase adipogenic markers (leptin, GLUT-4), precocious-phase markers (PPAR-γ, CEBP-α) and markers typical of the undifferentiated embryonic state (OCT4, SOX2, NANOG, SSEA-1, alkaline phosphatase) was evaluated by means of PCR and RT-PCR."}, "[2]": {"tested_on": "mature adipose cells", "assay": "Morphological analysis of treated cultures by optical (phase contrast) microscopy", "description": "Human pre-adipocytes and embryonic cell lines 3T3-L1 were sown at a density of 5×10^3 cells/cm^2 and cultivated in Petri plates in a proliferative medium (DMEM-F12, 10% Fetal Calf Serum (FCS), 1% antibiotic-fungizone (AF)) until the maximum cell confluence is reached. The differentiative induction is obtained by 48 hour treatment in specific medium consisting of DMEM, 10% Fetal Bovine Serum (FBS), 1 AF and specific differentiating factors (insulin, isobutylmethylxanthine, dexamethasone, indomethacin). The mature differentiated form (univacuolar phenotype) is reached after culture of 7-10 days in maintenance medium, free of adipogenic inductive agents. Immunofluorescence studies verify the expression of leptin, a hormone typically expressed by adipocytes in adult phase.\nThe mature adipose cells were maintained in a culture with DMEM, 10% FBS, 1 AF for two weeks, under continuous stimulation of 5′ Azacytidine at molar concentrations of 0.1 μM, 1 μM, 10 M, 100 μM, 125 μM, 150 μM, 175 μM, 250 μM."}, "[3]": {"tested_on": "embryoid bodies", "conditions": "1 μM, 6 hours; cited from earlier work"}, "[4]": {"tested_on": "adipose cells", "assay": "Cell growth determination by BrdU incorporation", "type": "cell-based, human", "conditions": "adipose cells treated"}, "[5]": {"tested_on": "adipocytes", "assay": "Determination of cell apoptosis (TACS Klenow In Situ Apoptotic Detection kit)", "type": "cell-based, human"}},
  "data": [
    {"smiles": "Nc1ncn([C@@H]2O[C@H](CO)[C@@H](O)[C@H]2O)c(=O)n1", "note": "[5-Azacytidine, 5′ Aza 2′ cytidine]", "values": [
      {"measurement": "expression of the differentiative late-phase adipogenic markers", "setting": "[1]", "value": "a reduction in the expression"},
      {"measurement": "apoptosis of treated cultures (FIG. 7)", "setting": "[2]; 250 μM", "value": "a high apoptotic degree is observed"},
      {"measurement": "cell damage and/or cell proliferation (FIG. 8)", "setting": "[2]; doses ≦0.1 μM", "value": "no signs of cell damage and/or cell proliferation"},
      {"measurement": "morphology of the plate", "setting": "[2]; mainly at 1-10 μM and higher than 100 μM, 10 days of treatment, preliminary results", "value": "a change in the morphology of the plate"},
      {"measurement": "colony growth process and sensitivity to LIF", "setting": "[3]", "value": "re-established the colony growth process typical of stem cells and the sensitivity to LEUKEMIA INHIBITORY FACTOR (LIF)"},
      {"measurement": "cell proliferation by incorporated BrdU", "setting": "[4]", "value": "Cell proliferation is observed"},
      {"measurement": "apoptotic phenomena", "setting": "[5]; 125 μM, 25 hours after treatment", "value": 15, "unit": "%"},
      {"measurement": "apoptotic phenomena", "setting": "[5]; 125 μM, 48 hours after treatment", "value": 15, "unit": "%"},
      {"measurement": "apoptotic phenomena", "setting": "[5]; 125 μM, 72 hours after treatment", "value": 10, "unit": "%"},
      {"measurement": "apoptotic phenomena", "setting": "[5]; 150 μM, 25 hours after treatment", "value": 22, "unit": "%"},
      {"measurement": "apoptotic phenomena", "setting": "[5]; 150 μM, 48 hours after treatment", "value": 28, "unit": "%"},
      {"measurement": "apoptotic phenomena", "setting": "[5]; 150 μM, 72 hours after treatment", "value": 10, "unit": "%"},
      {"measurement": "apoptotic phenomena", "setting": "[5]; 175 μM, 25 hours after treatment", "value": 38, "unit": "%"},
      {"measurement": "apoptotic phenomena", "setting": "[5]; 175 μM, 48 hours after treatment", "value": 41, "unit": "%"},
      {"measurement": "apoptotic phenomena", "setting": "[5]; 175 μM, 72 hours after treatment", "value": 10, "unit": "%"}
    ]}
  ]
}
